Test results published in doi:10.1101/2022.07.05.498881v1 (biorxiv, 2022).
Like-named read-outs stand apart in the source and are kept apart here.

Legend:
[1] = biological target: T1, SARS-CoV-2 MPro (main protease, 3CL protease, Nsp5) (Severe acute respiratory syndrome coronavirus 2, UniProt P0DTD1); test: biochemical; design: fluorogenic NSP7 peptide substrate cleavage, concentration-response inhibition of MPro
T1 construct: gene rep

[2] = biological target: T2, SARS-CoV-1 MPro (SARS-CoV-1 major protease) (Severe acute respiratory syndrome-related coronavirus, UniProt P0C6X7); test: biochemical
T2 construct: gene rep

[3] = biological target: T3, MERS MPro (MERS-CoV MPro, MERS major protease) (Betacoronavirus England 1, UniProt K9N7C7); test: biochemical
T3 construct: gene rep
T3 sequence (K9N7C7 3248-3553 limits assumed): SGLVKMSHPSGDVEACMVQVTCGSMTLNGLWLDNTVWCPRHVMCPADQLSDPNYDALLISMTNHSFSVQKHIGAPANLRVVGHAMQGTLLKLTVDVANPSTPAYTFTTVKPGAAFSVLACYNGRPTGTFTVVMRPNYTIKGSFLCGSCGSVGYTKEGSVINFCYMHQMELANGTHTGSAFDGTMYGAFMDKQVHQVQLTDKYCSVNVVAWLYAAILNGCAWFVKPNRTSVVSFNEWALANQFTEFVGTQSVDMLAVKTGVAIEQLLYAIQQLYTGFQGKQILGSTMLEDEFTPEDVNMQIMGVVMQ

[4] = biological target: T1, SARS-CoV-2 MPro (main protease, 3CL protease, Nsp5); design: fluorogenic NSP7 peptide substrate cleavage, concentration-response inhibition of MPro; details: read-out: IC50 [µM] (ACN); compound in acetonitrile; inhibitor

Row | Structure (SMILES) | IC50 [1] [µM] | also measured
1 | O=c1cc(CN2CC(CO)c3ccccc32)nc2ccccn12 (stereo not shown) [ZINC433294115] | 97 | –
2 | O=C(Cc1cccnc1)N(Cc1ccccn1)c1ccc(Cl)cc1 [ZINC346371112] | 214 | –
3 | Cc1noc(C)c1CCCNc1nc(-c2ccncc2)nc2ccccc12 [ZINC301553312] | 122 | –
4 | COc1cc(C=O)c(OS(=O)(=O)CC2CCCCC2)cc1OC [ZINC271072260] | 115 | –
5 | O=Cc1ncc(Br)cc1OCc1ccc(Cl)c([N+](=O)[O-])c1 ['7021] | – | IC50 [2]: 8 µM; IC50 [3]: 50 µM
6 | CC1CN(C(=O)CCn2cc(Br)ccc2=O)Cc2ccccc2O1 (stereo not shown) [ZINC553840273] | 200 | –
7 | CC1CN(c2ncnc3sc4ccccc4c23)CC(=O)N1C (stereo not shown) [ZINC336912805] | – | IC50 [4]: 177 µM; IC50 ([1]; read-out: IC50 [µM] (DMSO), compound in DMSO, inhibitor): 250 µM
8 | COC(=O)c1cc(C#N)c(=O)n(Cc2cccc(F)c2Cl)c1 [ZINC338540162] | 281 | –
